Measured values reported in patent publication US20230257415A1, “COMPOUNDS FOR TREATING CNS DISORDERS” (SAGE THERAPEUTICS, INC., priority 2019, published 2023).

Each molecule was assayed against GABAA receptor (assay: [35S]-TBPS binding assay, rat brain cortical membranes, in the presence of GABA). Settings: inhibition of 3 nM [35S]-TBPS binding, 5 mM GABA, 90 min, room temp.
Description: [35S]-t-Butylbicyclophosphorothionate (TBPS) binding assays using rat brain cortical membranes in the presence of 5 mM GABA has been described (Gee et al, J. Pharmacol. Exp. Ther. 1987, 241, 346-353; Hawkinson et al, Mol. Pharmacol. 1994, 46, 977-985; Lewin, A.H et al., Mol. Pharmacol. 1989, 35, 189-194).
Briefly, cortices are rapidly removed following decapitation of carbon dioxide-anesthetized Sprague-Dawley rats (200-250 g). The cortices are homogenized in 10 volumes of ice-cold 0.32 M sucrose using a glass/teflon homogenizer and centrifuged at 1500 x g for 10 min at 4° C. The resultant supernatants are centrifuged at 10,000 x g for 20 min at 4° C. to obtain the P2 pellets. The P2 pellets are resuspended in 200 mM NaCl/50 mM Na-K phosphate pH 7.4 buffer and centrifuged at 10,000 x g for 10 min at 4° C. This washing procedure is repeated twice and the pellets are resuspended in 10 volumes of buffer. Aliquots ([…]) of the membrane suspensions are incubated with 3 nM [^35S]-TBPS and […] aliquots of test drug dissolved in dimethyl sulfoxide (DMSO) (final 0.5%) in the presence of 5 mM GABA. The incubation is brought to a final volume of 1.0 mL with buffer. […] Following a 90 min incubation at room temp, the assays are terminated by filtration through glass fiber filters (Schleicher and Schuell No. 32) using a cell harvester (Brandel) and rinsed three times with ice-cold buffer. Filter bound radioactivity is measured by liquid scintillation spectrometry. Non-linear curve fitting of the overall data for each drug averaged for each concentration is done using Prism (GraphPad). […] The concentration of test compound producing 50% inhibition (IC50) of specific binding and the maximal extent of inhibition (Imax) are determined for the individual experiments with the same model used for the overall data and then the means ± SEM.s of the individual experiments are calculated.
Various compounds are or can be screened to determine their potential as modulators of [^35S]-TBPS binding in vitro. These assays are or can be performed in accordance with the above.

Q: `CCC[C@@]1(O)CC[C@H]2[C@@H](CC[C@@H]3[C@@H]2CC[C@]2(C)[C@@H]([C@@H](C)Cn4nnc(C)n4)CCC[C@@H]32)C1` [Example 5, (2R,4aS,4bR,6aS,7R,10aS,10bR,12aS)-6a-methyl-7-((R)-1-(5-methyl-2H-tetrazol-2-yl)propan-2-yl)-2-propyloctadecahydrochrysen-2-ol] was tested. Which IC50 did it give?
A: 100 to 1000 nM

Q: How did the IC50 turn out when `COC[C@@]1(O)CC[C@@H]2C3CC[C@]4(C)[C@@H]([C@H](C)NC(=O)c5ccc(C#N)cc5)CCC[C@H]4[C@@H]3CC[C@@H]2C1` (stereo partly drawn) [Example 47, 4-cyano-N-((1S)-1-((1S,4aS,4bR,6aR,8R,10aS,12aS)-8-hydroxy-8-(methoxymethyl)-12a-methyloctadecahydrochrysen-1-yl)ethyl)benzamide] was run?
A: 100 to 1000 nM

Q: `C[C@@H](NC(=O)c1ccc(C#N)cc1)[C@H]1CCC[C@H]2[C@@H]3CC[C@@H]4C[C@](C)(O)CC[C@@H]4C3CC[C@]12C` (stereo partly drawn) [Example 43, 4-cyano-N-((1R)-1-((1S,4aS,4bR,6aR,8R,10aS,12aS)-8-hydroxy-8,12a-dimethyloctadecahydrochrysen-1-yl)ethyl)benzamide] was tested. Which IC50 did it give?
A: 100 to 1000 nM

Q: For `C[C@@]1(O)CC[C@H]2[C@H](CC[C@@H]3[C@@H]2CC[C@]2(C)[C@@H](CNC(=O)c4cccnc4)CCC[C@@H]32)C1` [Example 35, N-(((1S,4aS,4bR,6aR,8R,10aS,10bR,12aS)-8-hydroxy-8,12a-dimethyloctadecahydrochrysen-1-yl)methyl)nicotinamide], which IC50 is on record?
A: 100 to 1000 nM

Q: For `Cn1ccc(C(=O)NC[C@H]2CCC[C@H]3[C@@H]4CC[C@@H]5C[C@](C)(O)CC[C@@H]5[C@H]4CC[C@]23C)n1` [Example 27, N-(((1S,4aS,4bR,6aR,8R,10aS,10bR,12aS)-8-hydroxy-8,12a-dimethyloctadecahydrochrysen-1-yl)methyl)-1-methyl-1H-pyrazole-3-carboxamide], which IC50 is on record?
A: 100 to 1000 nM

Q: With `COC[C@@]1(O)CC[C@H]2[C@H](CC[C@@H]3[C@@H]2CC[C@]2(C)[C@@H]([C@@H](C)Cn4cc(C#N)cn4)CCC[C@@H]32)C1` [Example 3, 1-((R)-2-((1R,4aS,4bR,6aR,8R,10aS,10bR,12aS)-8-hydroxy-8-(methoxymethyl)-12a-methyloctadecahydrochrysen-1-yl)propyl)-1H-pyrazole-4-carbonitrile] as the molecule, how does the IC50 read?
A: < 100 nM

Q: How did the IC50 turn out when `Cn1nccc1C(=O)NC[C@H]1CCC[C@H]2[C@@H]3CC[C@@H]4C[C@](C)(O)CC[C@@H]4[C@H]3CC[C@]12C` [Example 33, N-(((1S,4aS,4bR,6aR,8R,10aS,10bR,12aS)-8-hydroxy-8,12a-dimethyloctadecahydrochrysen-1-yl)methyl)-1-methyl-1H-pyrazole-5-carboxamide] was run?
A: 100 to 1000 nM

Q: How did the IC50 turn out when `C[C@@H]1CC[C@H]([C@H](C)Cn2cc(C#N)cn2)[C@@]2(C)CC[C@H]3[C@@H](CC[C@@H]4C[C@](C)(O)CC[C@@H]43)[C@H]12` [Example 12, 1-((S)-2-((1R,4R,4aS,4bR,6aR,8R,10aS,10bR,12aR)-8-hydroxy-4,8,12a-trimethyloctadecahydrochrysen-1-yl)propyl)-1H-pyrazole-4-carbonitrile] was run?
A: < 100 nM

Q: With `C[C@@]1(O)CC[C@H]2[C@H](CC[C@@H]3[C@@H]2CC[C@]2(C)[C@@H](CNC(=O)c4ccccc4)CCC[C@@H]32)C1` [Example 24, N-(((1S,4aS,4bR6aR,8R,10aS,10bR,12aS)-8-hydroxy-8,12a-dimethyloctadecahydrochrysen-1-yl)methyl)benzamide] as the molecule, how does the IC50 read?
A: 100 to 1000 nM

Q: How did the IC50 turn out when `C[C@@]1(O)CC[C@H]2[C@H](CC[C@@H]3[C@@H]2CC[C@]2(C)[C@@H](CNC(=O)c4ccccn4)CCC[C@@H]32)C1` [Example 29, N-(((1S,4aS,4bR,6aR,8R,10aS,10bR,12aS)-8-hydroxy-8,12a-dimethyloctadecahydrochrysen-1-yl)methyl)picolinamide] was run?
A: 100 to 1000 nM

Q: `C[C@H](NC(=O)c1ccc(C#N)cc1)[C@H]1CCC[C@H]2[C@@H]3CC[C@@H]4C[C@](C)(O)CC[C@@H]4C3CC[C@]12C` (stereo partly drawn) [Example 42, 4-cyano-N-((1S)-1-((1S,4aS,4bR,6aR,8R,10aS,12aS)-8-hydroxy-8,12a-dimethyloctadecahydrochrysen-1-yl)ethyl)benzamide] was tested. Which IC50 did it give?
A: 100 to 1000 nM

Q: Which IC50 does the source give for `COC[C@@]1(O)CC[C@@H]2C3CC[C@]4(C)[C@@H]([C@@H](C)NC(=O)c5ccc(F)cc5)CCC[C@H]4[C@@H]3CC[C@@H]2C1` (stereo partly drawn) [Example 44, 4-fluoro-N-((1R)-1-((1S,4aS,4bR,6aR,8R,10aS,12aS)-8-hydroxy-8-(methoxymethyl)-12a-methyloctadecahydrochrysen-1-yl)ethyl)benzamide] here?
A: 100 to 1000 nM

Q: How did the IC50 turn out when `C[C@@H](Nc1cccc(C#N)c1)[C@H]1CCC[C@H]2[C@@H]3CC[C@@H]4C[C@](C)(O)CC[C@@H]4C3CC[C@]12C` (stereo partly drawn) [Example 49, 3-(((1R)-1-((1S,4aS,4bR,6aR,8R,10aS,12aS)-8-hydroxy-8,12a-dimethyloctadecahydrochrysen-1-yl)ethyl)amino)benzonitrile] was run?
A: < 100 nM

Q: How did the IC50 turn out when `C[C@H](Nc1ccc(C#N)cc1)[C@H]1CCC[C@H]2[C@@H]3CC[C@@H]4C[C@](C)(O)CC[C@@H]4C3CC[C@]12C` (stereo partly drawn) [Example 50, 4-(((1S)-1-((1S,4aS,4bR,6aR,8R,10aS,12aS)-8-hydroxy-8,12a-dimethyloctadecahydrochrysen-1-yl)ethyl)amino)benzonitrile] was run?
A: < 100 nM

Q: For `C[C@H](Cn1cc(C#N)cn1)[C@H]1CC[C@H]2[C@@H]3CC=C4CC[C@](C)(O)CC[C@]4(C)[C@H]3CC[C@]12C` [Example 18, 1-((S)-2-((1R,3aS,3bS,8S,10aR,10bS,12aS)-8-hydroxy-8,10a,12a-trimethyl-1,2,3,3a,3b,4,6,7,8,9,10,10a,10b,11,12,12a-hexadecahydrocyclohepta[a]cyclopenta[f]naphthalen-1-yl)propyl)-1H-pyrazole-4-carbonitrile], which IC50 is on record?
A: < 100 nM

Q: `CCOC[C@@]1(O)CC[C@@H]2C3CC[C@]4(C)[C@@H]([C@@H](C)NC(=O)c5ccc(F)cc5F)CCC[C@H]4[C@@H]3CC[C@@H]2C1` (stereo partly drawn) [Example 52, N-((1R)-1-((1S,4aS,4bR,6aR,8R,10aS,12aS)-8-(ethoxymethyl)-8-hydroxy-12a-methyloctadecahydrochrysen-1-yl)ethyl)-2,4-difluorobenzamide] was tested. Which IC50 did it give?
A: 100 to 1000 nM

Q: `CC[C@]12CC[C@@](C)(O)C[C@H]1CC[C@H]1[C@@H]3CCC[C@H](CNC(=O)c4ccccc4)[C@@]3(C)CC[C@@H]12` [Example 36, N-(((1S,4aS,4bS,6aR,8R,10aS,10bS,12aS)-10a-ethyl-8-hydroxy-8,12a-dimethyloctadecahydrochrysen-1-yl)methyl)benzamide] was tested. Which IC50 did it give?
A: 100 to 1000 nM

Q: Which IC50 does the source give for `C[C@@]1(O)CC[C@H]2[C@H](CC[C@@H]3[C@@H]2CC[C@]2(C)[C@@H](CNS(=O)(=O)C4CC4)CCC[C@@H]32)C1` [Example 32, N-(((1S,4aS,4bR,6aR,8R,10aS,10bR,12aS)-8-hydroxy-8,12a-dimethyloctadecahydrochrysen-1-yl)methyl)cyclopropanesulfonamide] here?
A: 100 to 1000 nM

Q: `C[C@@]1(O)CC[C@H]2[C@H](CC[C@@H]3[C@@H]2CC[C@]2(C)[C@@H](CNC(=O)c4cccc(C#N)c4)CCC[C@@H]32)C1` [Example 31, 3-cyano-N-(((1S,4aS,4bR,6aR,8R,10aS,10bR,12aS)-8-hydroxy-8,12a-dimethyloctadecahydrochrysen-1-yl)methyl)benzamide] was tested. Which IC50 did it give?
A: 100 to 1000 nM

Q: For `CCC[C@@]1(O)CC[C@H]2[C@@H](CC[C@@H]3[C@@H]2CC[C@]2(C)[C@@H]([C@H](C)Cn4nnnc4C)CCC[C@@H]32)C1` [Example 7, (2R,4aS,4bR,6aS,7R,10aS,10bR,12aS)-6a-methyl-7-((S)-1-(5-methyl-1H-tetrazol-1-yl)propan-2-yl)-2-propyloctadecahydrochrysen-2-ol], which IC50 is on record?
A: ≥ 1000 nM

Q: `CCC[C@@]1(O)CC[C@@]2(C)[C@@H](CC[C@@H]3[C@@H]2CC[C@]2(C)[C@@H]([C@@H](C)Cn4nnnc4C)CCC[C@@H]32)C1` [Example 10, (2R,4aS,4bS,6aS,7R,10aS,10bR,12aS)-4a,6a-dimethyl-7-((R)-1-(5-methyl-1H-tetrazol-1-yl)propan-2-yl)-2-propyloctadecahydrochrysen-2-ol] was tested. Which IC50 did it give?
A: 100 to 1000 nM

Q: Which IC50 does the source give for `C[C@H](Cn1cc(C#N)cn1)[C@H]1CC[C@H]2[C@@H]3CC[C@H]4CC[C@](C)(O)CC[C@]4(C)[C@H]3CC[C@]12C` [Example 20, 1-((S)-2-((1R,3aS,3bR,5aS,8S,10aS,10bS,12aS)-8-hydroxy-8,10a,12a-trimethyloctadecahydrocyclohepta[a]cyclopenta[f]naphthalen-1-yl)propyl)-1H-pyrazole-4-carbonitrile] here?
A: < 100 nM
